From article PMC11489226 (Archives of Toxicology, 2024)

Target: T1, CYP2C8 (Homo sapiens, UniProt P10632)
T1 construct: V5-His (vector-encoded) (C); expressed in transfected cells
T1 sequence (P10632 1-490): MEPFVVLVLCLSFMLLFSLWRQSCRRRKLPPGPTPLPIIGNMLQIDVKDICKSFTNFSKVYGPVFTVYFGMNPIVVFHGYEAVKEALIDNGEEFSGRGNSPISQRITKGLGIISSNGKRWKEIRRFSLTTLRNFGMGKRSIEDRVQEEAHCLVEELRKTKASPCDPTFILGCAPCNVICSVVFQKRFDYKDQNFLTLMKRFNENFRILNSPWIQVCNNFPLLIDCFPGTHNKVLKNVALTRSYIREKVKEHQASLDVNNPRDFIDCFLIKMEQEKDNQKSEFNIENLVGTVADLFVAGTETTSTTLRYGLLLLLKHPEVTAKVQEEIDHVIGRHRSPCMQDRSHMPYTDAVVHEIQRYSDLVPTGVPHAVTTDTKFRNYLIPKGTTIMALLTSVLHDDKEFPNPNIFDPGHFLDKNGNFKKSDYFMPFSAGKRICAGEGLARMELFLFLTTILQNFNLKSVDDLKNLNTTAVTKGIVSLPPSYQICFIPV
Experiment: Metabolism in transgenic HEK293 cells expressing CYP2C8
Type: in vitro ADME
Settings: 20 µM parent PCB, 24 h, supernatant
Method: For the generation of transgenic cell lines, we used semi-adherent HEK293 cells (DSMZ, ACC305, human embryonic kidney cells) which were cultured on a daily basis in DMEM medium supplemented with 10% (FCS) and 1% penicillin/streptomycin. In a first step CYP1A2, CYP2C8, CYP2C9, CYP3A4, CYP2A6, and CYP2E1 cDNA were cloned into the plasmid pcDNATM3.1/V5-His TOPO® using human liver RNA as a template and using the following primers: CYP1A2 for5′-[…]-3′, CYP1A2 rev 5′-[…]-3′; CYP2C8 for 5′-[…]-3′, CYP2C8 rev 5′-[…]-3′; CYP2C9 for 5′-[…]-3′, CYP2C9 rev 5′-[…]-3′; CYP3A4 for 5′-[…]-3′, CYP3A4 rev 5′-[…]-3′, CYP2A6 for 5′-[…]-3′, CYP2A6 rev 5′-[…]-3′; CYP2E1 for 5′-[…]-3′, CYP2E1 rev 5′-[…]-3′. Final constructs were verified with Sanger DNA sequencing and restriction digestion. For transfection, 3 × 10^6 HEK293 cells were pre-incubated in a 10 cm dish in DMEM medium with 10% FCS, but without antibiotics, for 18 to 24 h. When the cells reached approximately 70% confluency, they were transfected using TransIT-LT1 transfection reagent (Biozol, Eiching, Germany). The TransIT-LT1 reagent was warmed to room temperature and vortexed. 1.63 mL Opti-MEM, 16.25 µL plasmid DNA (1 µg/µL), and 48.75 µL TransIT-LT1 reagent were mixed and incubated for 15 to 30 min. The mixture was then added dropwise to the medium of the cells, and the cells were incubated again at 37 °C and 5% CO2. After 24 h, the medium was replaced with standard medium and geneticin was added for selection (1 mg/mL). Cells were selected for 6–8 weeks in bulk culture, and single cell clones were obtained subsequently by limiting dilution. Each clone was checked for insertion by PCR using genomic DNA as a template.
Parallel samples were run without the addition of PCBs. At a confluence of 80%, PCBs (20 μM each, dissolved in ethanol) were added and cells were incubated for 24 h before harvest of supernatants. Supernatants were diluted 1:2 with 80 μL acetate buffer 0.1 M (pH = 5.3). 100 μL of this dilution were further incubated with 100 μL of ammonium acetate buffer 0.1 M (pH = 5.3) and 5 μL of β-Glucuronidase/Arylsulfatase enzyme overnight in a drying oven at 37 °C for enzymatic hydrolysis to release conjugated compounds. 50 μL of a mix of internal standards (10 ng/mL) and 600 μL of methanol were added to the samples, then mixed by vortexing for 1 min and centrifuged for 10 min at 3400g. The individual supernatants were transferred to glass LC vials and evaporated to approximately 50 μL at 45 °C under a gentle stream of nitrogen. Finally, 0.1 mol/ L ammonium acetate buffer was added to a final volume of 100 μL and then transferred to an insert for analysis. […]

Measured: Quantification of metabolites generated from PCB28, 52, and 101

Oc1cc(Cl)c(-c2ccc(Cl)cc2)cc1Cl [4-OHCB31, 2,4′,5-trichloro-4-biphenylol]
<LOQ: CYP2C8 Clone A3 | CYP2C8 Clone D8 | CYP2C8 Clone D9

Oc1cc(-c2ccc(Cl)cc2)c(Cl)cc1Cl [5-OHCB28, 2,4,4′-trichloro-5-biphenylol]
<LOQ: CYP2C8 Clone A3 | CYP2C8 Clone D8 | CYP2C8 Clone D9
